According to PMC4210713, “Intragenic antimicrobial peptides from Theobroma cacao” (BMC Proceedings, 2014):
Where no end group is shown, it is not given here.

Tested on: Candida albicans ATCC 90028
Settings: C. albicans ATCC 90028; broth microdilution, CLSI M27-A3; tested at 256 μM-0.5 μM; preliminary results

GFKDLLKGAAKALVKTVLF-NH2 [Ascaphin-8]
MIC (minimum inhibitory concentration): 8 µM
